Results reported in patent publication US10123993B2, “Cyclic ureas as inhibitors of rock” (BRISTOL-MYERS SQUIBB COMPANY, priority 2015, dated 2018).
Where a name gives a salt, the structure may show the parent alone.

Molecular target: ROCK2 (Homo sapiens, UniProt O75116)
Test: ROCK2 kinase inhibition assay (Caliper LABCHIP, FITC peptide substrate)
Format: biochemical
Conditions: 5 μM ATP, 1.5 μM peptide substrate; value ranges
In short: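 Rho kinase with 5 μM ATP and 1.5 μM FITC-AHA-AKRRRLSSLRA-OH peptide in HEPES pH 7.5, 20 mM MgCl2, 0.015% Brij-35, 4 mM DTT, DMSO <2%. EDTA stop; phospho and non-phospho peptide separated on LabChip. IC50 from dose-response fit.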

Sequence of ROCK2 (O75116 whole entry, species assumed): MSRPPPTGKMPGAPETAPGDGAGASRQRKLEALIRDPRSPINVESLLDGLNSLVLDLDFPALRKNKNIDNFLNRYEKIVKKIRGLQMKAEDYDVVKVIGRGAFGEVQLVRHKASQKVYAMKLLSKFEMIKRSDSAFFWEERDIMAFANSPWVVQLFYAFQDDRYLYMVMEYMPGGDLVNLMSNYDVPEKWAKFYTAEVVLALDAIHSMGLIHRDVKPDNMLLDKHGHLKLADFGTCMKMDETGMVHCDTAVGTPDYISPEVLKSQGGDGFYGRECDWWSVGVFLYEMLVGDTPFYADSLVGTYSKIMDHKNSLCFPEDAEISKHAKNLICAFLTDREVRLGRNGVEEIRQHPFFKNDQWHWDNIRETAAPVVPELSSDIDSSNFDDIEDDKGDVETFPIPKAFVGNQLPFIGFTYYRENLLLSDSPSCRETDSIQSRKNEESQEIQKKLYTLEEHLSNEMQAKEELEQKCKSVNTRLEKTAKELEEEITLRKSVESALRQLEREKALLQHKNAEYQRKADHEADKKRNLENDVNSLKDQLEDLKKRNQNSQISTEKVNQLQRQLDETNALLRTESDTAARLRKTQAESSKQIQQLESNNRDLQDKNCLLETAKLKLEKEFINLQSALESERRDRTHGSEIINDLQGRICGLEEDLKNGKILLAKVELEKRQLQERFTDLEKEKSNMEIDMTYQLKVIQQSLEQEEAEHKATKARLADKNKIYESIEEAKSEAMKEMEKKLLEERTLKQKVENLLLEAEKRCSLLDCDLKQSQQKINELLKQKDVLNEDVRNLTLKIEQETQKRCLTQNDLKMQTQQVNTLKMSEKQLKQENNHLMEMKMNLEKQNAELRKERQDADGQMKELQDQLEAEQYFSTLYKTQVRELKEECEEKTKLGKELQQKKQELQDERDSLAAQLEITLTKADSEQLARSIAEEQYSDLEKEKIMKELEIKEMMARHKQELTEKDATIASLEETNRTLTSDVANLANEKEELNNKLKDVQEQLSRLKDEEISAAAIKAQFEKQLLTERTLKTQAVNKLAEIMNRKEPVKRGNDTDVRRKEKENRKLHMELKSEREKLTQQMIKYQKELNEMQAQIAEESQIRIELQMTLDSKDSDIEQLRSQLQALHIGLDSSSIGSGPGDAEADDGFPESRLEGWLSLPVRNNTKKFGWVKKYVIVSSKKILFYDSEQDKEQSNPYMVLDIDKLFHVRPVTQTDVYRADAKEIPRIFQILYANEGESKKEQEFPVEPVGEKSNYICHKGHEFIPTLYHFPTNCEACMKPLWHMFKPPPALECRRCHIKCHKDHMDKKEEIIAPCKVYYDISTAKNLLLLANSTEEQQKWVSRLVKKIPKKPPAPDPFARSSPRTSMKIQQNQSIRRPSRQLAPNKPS

`COc1cccc(CN2C(=O)N(c3ccc(-c4cn[nH]c4)cc3)C[C@@H]2CO)c1` [Example 125, (R)-1-(4-(1H-Pyrazol-4-yl)phenyl)-4-(hydroxymethyl)-3-(3-methoxybenzyl)imidazolidin-2-one] gave an IC50 of less than 2 nM.

`COc1cccc(C(C(=O)O)N2CCN(c3ccc(-c4cn[nH]c4)cc3)C2=O)c1` (single isomer, unassigned) [Example 288, 2-(3-(4-(1H-Pyrazol-4-yl)phenyl)-2-oxoimidazolidin-1-yl)-2-(3-methoxyphenyl)acetic Acid] showed an IC50 of 200 to 2000 nM.

For `COc1cccc(CN2CCN(c3ccc(-c4cn[nH]c4)c(OC)n3)C2=O)c1F` [Example 252, 1-(2-fluoro-3-methoxybenzyl)-3-(6-methoxy-5-(1H-pyrazol-4-yl)pyridin-2-yl)imidazolidin-2-one], the IC50 was 2.1 to 20 nM.

`COc1cccc([C@H](C)N2CCN(c3ccc(-c4cn[nH]c4)cc3)C2=O)c1` [Example 456, (S)-1-(4-(1H-pyrazol-4-yl)phenyl)-3-(1-(3-methoxyphenyl)ethyl)imidazolidin-2-one] was tested, and the IC50 was 20.1 to 200 nM.

`COc1cc(C(C)N2CCN(c3ccc(-c4cn[nH]c4)c(C)n3)C2=O)ccc1F` (single isomer, unassigned) [Example 209, 1-(1-(4-fluoro-3-methoxyphenyl)ethyl)-3-(6-methyl-5-(1H-pyrazol-4-yl)pyridin-2-yl)imidazolidin-2-one] showed an IC50 of 2.1 to 20 nM.

`COc1nc(-n2ccn(CC3CCCO3)c2=O)ccc1-c1cn[nH]c1` (stereo not drawn) [Example 418, 1-(6-methoxy-5-(1H-pyrazol-4-yl)pyridin-2-yl)-3-((tetrahydrofuran-2-yl)methyl)-1H-imidazol-2(3H)-one] gave an IC50 of 20.1 to 200 nM.

`O=C1N(CC2CCCCC2)CCN1c1ccc(-c2cn[nH]c2)cc1` [Example 211, 1-(4-(1H-pyrazol-4-yl)phenyl)-3-(cyclohexylmethyl)imidazolidin-2-one] gave an IC50 of 200 to 2000 nM.

In the case of `CCOc1cccc(C(C)N2CCN(c3ccc(-c4cn[nH]c4)c(CC)n3)C2=O)c1` (single isomer, unassigned) [Example 267, 1-(1-(3-ethoxyphenyl)ethyl)-3-(6-ethyl-5-(1H-pyrazol-4-yl)pyridin-2-yl)imidazolidin-2-one], the IC50 is reported as 200 to 2000 nM.

`COC(=O)C1CN(Cc2cccc(F)c2)C(=O)N1c1ccc(-c2cn[nH]c2)cc1` (stereo not drawn) [Example 34, Methyl 3-(4-(1H-pyrazol-4-yl)phenyl)-1-(3-fluorobenzyl)-2-oxoimidazolidine-4-carboxylate] showed an IC50 of 20.1 to 200 nM.

`COc1cccc(CN2C(=O)N(c3ccc(-c4cn[nH]c4)cc3)CC2C(C)(C)O)c1` (single isomer, unassigned; (-)) [Example 44, (−)-1-(4-(1H-Pyrazol-4-yl)phenyl)-4-(2-hydroxypropan-2-yl)-3-(3-methoxybenzyl)imidazolidin-2-one] showed an IC50 of less than 2 nM.

For `COc1nc(-n2ccn(CC3CCCCC3)c2=O)ccc1-c1cn[nH]c1` [Example 420, 1-(cyclohexylmethyl)-3-(6-methoxy-5-(1H-pyrazol-4-yl)pyridin-2-yl)-1H-imidazol-2(3H)-one], the IC50 was 20.1 to 200 nM.

`COc1cccc(CN2CCN(c3ccc(-c4c[nH]nc4C)c(OC)n3)C2=O)c1` [Example 320, 1-(6-methoxy-5-(5-methyl-1H-pyrazol-4-yl)pyridin-2-yl)-3-(3-methoxybenzyl)imidazolidin-2-one] gave an IC50 of 2.1 to 20 nM.

With `O=C1N(Cc2cccc(OCC3CC3)c2)CCN1c1ccc(-c2cn[nH]c2)cn1` [Example 438, 1-(5-(1H-pyrazol-4-yl)pyridin-2-yl)-3-(3-(cyclopropylmethoxy)benzyl)imidazolidin-2-one] the IC50 was 20.1 to 200 nM.

Molecule `COc1cccc(C(C)n2ccn(-c3ccc(-c4cn[nH]c4)cn3)c2=O)c1` (single isomer, unassigned) [Example 355, 1-(5-(1H-pyrazol-4-yl)pyridin-2-yl)-3-(1-(3-methoxyphenyl)ethyl)-1H-imidazol-2(3H)-one] has an IC50 of less than 2 nM.

`O=C1N(c2ccc(-c3cn[nH]c3)cc2)C[C@@H](CO)N1Cc1cccc(OCC2CC2)c1` [Example 476, (S)-1-(4-(1H-pyrazol-4-yl)phenyl)-3-(3-(cyclopropylmethoxy)benzyl)-4-(hydroxymethyl)imidazolidin-2-one] was tested, and the IC50 was 2.1 to 20 nM.

For `CCc1cc(-n2ccn(C(CO)c3cccc(OC)c3)c2=O)ccc1-c1cn[nH]c1` (single isomer, unassigned) [Example 358, 1-(3-ethyl-4-(1H-pyrazol-4-yl)phenyl)-3-(2-hydroxy-1-(3-methoxyphenyl)ethyl)-1H-imidazol-2(3H)-one], the IC50 was 200 to 2000 nM.

With `CNC(=O)C(C)(c1cccc(OC)c1)N1CCN(c2ccc(-c3cn[nH]c3)cc2)C1=O` (single isomer, unassigned) [Example 304, 2-(3-(4-(1H-Pyrazol-4-yl)phenyl)-2-oxoimidazolidin-1-yl)-2-(3-methoxyphenyl)-N-methylpropanamide] the IC50 was 200 to 2000 nM.

With `CCc1nc(N2CCN(Cc3cccc(OC)c3)C2=O)ccc1-c1cn[nH]c1` [Example 167, 1-(6-ethyl-5-(1H-pyrazol-4-yl)pyridin-2-yl)-3-(3-methoxy-benzyl) imidazolidin-2-one] the IC50 was less than 2 nM.

Work on `COc1cccc(C(C)N2CCN(c3ccc(-c4cn[nH]c4)c(C)c3)C2=O)c1` (single isomer, unassigned) [Example 193, 1-(1-(3-methoxy-phenyl)-ethyl)-3-(3-methyl-4-(1H-pyrazol-4-yl)phenyl) imidazolidin-2-one] yielded an IC50 of 2.1 to 20 nM.

Work on `COc1cccc(CN2CCN(c3ccc(-c4ccncc4F)c(OC)n3)C2=O)c1` [Example 316, 1-(3′-Fluoro-2-methoxy-[3,4′-bipyridin]-6-yl)-3-(3-methoxybenzyl)imidazolidin-2-one] yielded an IC50 of 2.1 to 20 nM.

`CCOC(=O)C1CN(Cc2ccccc2)C(=O)N1c1ccc(-c2cn[nH]c2)cc1` (stereo not drawn) [Example 29, Ethyl 3-(4-(1H-pyrazol-4-yl)phenyl)-1-benzyl-2-oxoimidazolidine-4-carboxylate] gave an IC50 of 20.1 to 200 nM.

Molecule `COc1ccc(CN2CCN(c3ccc(-c4cn[nH]c4)cc3)C2=O)cc1F` [Example 117, 1-(4-(1H-pyrazol-4-yl)phenyl)-3-(3-fluoro-4-methoxybenzyl)imidazolidin-2-one] has an IC50 of 200 to 2000 nM.

With `COc1cc(F)cc(CN2CCN(c3cc(C)c(-c4cn[nH]c4)cn3)C2=O)c1` [Example 464, 1-(3-fluoro-5-methoxybenzyl)-3-(4-methyl-5-(1H-pyrazol-4-yl)pyridin-2-yl)imidazolidin-2-one] the IC50 was 20.1 to 200 nM.

`COc1cc(N2C(=O)CN(Cc3ccccc3F)C2=O)ccc1-c1cn[nH]c1` [Example 91, 1-(2-fluorobenzyl)-3-(3-methoxy-4-(1H-pyrazol-4-yl)phenyl)imidazolidine-2,4-dione, TFA] showed an IC50 of 200 to 2000 nM.

With `COc1ccc(F)cc1CN1CCN(c2ccc(-c3cn[nH]c3)c(OC)n2)C1=O` [Example 222, 1-(5-fluoro-2-methoxybenzyl)-3-(6-methoxy-5-(1H-pyrazol-4-yl)pyridin-2-yl)imidazolidin-2-one] the IC50 was 2.1 to 20 nM.

With `CCc1nc(-n2ccn(C(C)c3cccc(OCC4CC4)c3)c2=O)ccc1-c1cn[nH]c1` (single isomer, unassigned) [Example 372, 1-(1-(3-(cyclopropylmethoxy)phenyl)ethyl)-3-(6-ethyl-5-(1H-pyrazol-4-yl)pyridin-2-yl)-1H-imidazol-2(3H)-one] the IC50 was 20.1 to 200 nM.

`CCc1cc(N2CCN(CCc3cccc(OC)c3)C2=O)ccc1-c1cn[nH]c1` [Example 27, 1-(3-Ethyl-4-(1H-pyrazol-4-yl)phenyl)-3-(3-methoxyphenethyl)imidazolidin-2-one, TFA] was tested, and the IC50 was 200 to 2000 nM.

`O=C1CN(Cc2cccc(F)c2)C(=O)N1c1ccc(-c2cn[nH]c2)cc1` [Example 81, 3-(4-(1H-pyrazol-4-yl)phenyl)-1-(3-fluorobenzyl)imidazolidine-2,4-dione] showed an IC50 of 200 to 2000 nM.

`CNc1nc(N2CCN(Cc3cccc(OC)c3)C2=O)ccc1-c1cn[nH]c1` [Example 202, 1-(3-methoxy-benzyl)-3-(6-(methyl-amino)-5-(1H-pyrazol-4-yl)pyridin-2-yl)-imidazolidin-2-one] was tested, and the IC50 was 2.1 to 20 nM.

`CCc1nc(-n2ccn(C(C)c3cccc(OC)c3)c2=O)ccc1-c1cn[nH]c1` (single isomer, unassigned) [Example 184, 1-(6-ethyl-5-(1H-pyrazol-4-yl)pyridin-2-yl)-3-(1-(3-methoxy-phenyl)-ethyl)-1H-imidazol-2(3H)-one] showed an IC50 of 200 to 2000 nM.

`COc1cccc(CN2CCN(c3ccc(-c4cn[nH]c4)c(C)c3)C2=O)c1` [Example 273, 1-(3-methoxybenzyl)-3-(3-methyl-4-(1H-pyrazol-4-yl)phenyl)imidazolidin-2-one] showed an IC50 of 2.1 to 20 nM.

Work on `CCc1nc(-n2ccn(Cc3cc(F)cc(OC)c3)c2=O)ccc1-c1cn[nH]c1` [Example 172, 1-(6-ethyl-5-(1H-pyrazol-4-yl)pyridin-2-yl)-3-(3-fluoro-5-methoxy-benzyl)-1H-imidazol-2(3H)-one] yielded an IC50 of 2.1 to 20 nM.

Molecule `CCc1cc(-n2ccn(C(CO)c3cccc(OC)c3)c2=O)ccc1-c1cn[nH]c1` (single isomer, unassigned) [Example 359, 1-(3-ethyl-4-(1H-pyrazol-4-yl)phenyl)-3-(2-hydroxy-1-(3-methoxyphenyl)ethyl)-1H-imidazol-2(3H)-one] has an IC50 of 20.1 to 200 nM.

With `COc1nc(-n2ccn(Cc3cc(F)ccc3C)c2=O)ccc1-c1cn[nH]c1` [Example 382, 1-(5-fluoro-2-methylbenzyl)-3-(6-methoxy-5-(1H-pyrazol-4-yl)pyridin-2-yl)-1H-imidazol-2(3H)-one] the IC50 was 2.1 to 20 nM.

`CC(c1ccccc1)n1ccn(-c2ccc(-c3cn[nH]c3)cc2)c1=O` (stereo not drawn) [Example 331, 1-(4-(1H-pyrazol-4-yl)phenyl)-3-(1-phenylethyl)-1H-imidazol-2(3H)-one] gave an IC50 of 2.1 to 20 nM.

In the case of `COc1cccc(CN2C(=O)N(c3ccc(-c4cn[nH]c4)cc3)CC2CO)c1` (single isomer, unassigned; (+)) [Example 42, (+)-1-(4-(1H-Pyrazol-4-yl)phenyl)-4-(hydroxymethyl)-3-(3-methoxybenzyl)imidazolidin-2-one], the IC50 is reported as less than 2 nM.
